Measured values taken from US20220175734A1, “USING PARASYMPATHOMIMETIC DRUGS ALONE OR, IN COMBINATION WITH ONE OR MORE ALPHA AGONISTS IN PSEUDOPHAKIC PATIENTS, TO CREATE MULTI-FOCALITY” (Visus Therapeutics, Inc., priority 2019, published 2022).
“And” between values parts separate entries of the source, which are not always exact repeats. Identical values can stand only once.

How the values were obtained:
[1] = system: naturally emmetropic and presbyopic subjects; experiment: Example 13 crossover trial, combined vs separate carbachol and brimonidine drops: near visual acuity (Rosenbaum chart, Jaeger notation) (Table 13); type: in vivo, human; details: for NVA 1-h / NVA 2-h / NVA 4-h / NVA 8-h / NVA Pre-treatment: mean ± SD, ten subjects; for NVA Pre-treatment: before treatment
Source text: (§1) Participants were randomly selected volunteers. […] None of the patients included in the study had received any topical medication that could cause pupil mydriasis or miosis. […] All procedures followed were in accordance with the ethical standards of the responsible committee on human experimentation.
(§2) The 3% carbachol drops included 50 ppm of benzalkonium chloride.

[2] = system: naturally emmetropic and presbyopic subjects; experiment: Example 13 crossover trial: pupil size (Colvard infrared pupilometer) (Table 13); type: in vivo, human; details: for PS 1-h / PS 2-h / PS 4-h / PS 8-h / PS Pre-treatment: mean pupil size, ten subjects; for PS Pre-treatment: before treatment
Source text: as §1, §2

[3] = system: naturally emmetropic and presbyopic subjects; details: combination, separate, brimonidine alone, carbachol alone; FIG. 11
Procedure: Participants were volunteers selected at random.
The study used standard Snellen projector chart to measure distance visual acuity. Near visual acuity was assessed at 40 cm using Jaeger (J) Eye Chart. Statistical analysis was performed using the Student's t-test and p value of less than 0.05 was considered statistically significant. Data was expressed as mean, range, and standard deviation (SD).

emmetropic presbyopes = details: Group 1
Source text: (§3) The study evaluated in a blind study the efficacy of using of a parasympathomimetic drug of different concentrations together with an alpha agonist to create optically beneficial miosis to temporarily treat different types of presbyopia (emmetropic, myopic and hyperopic).
(§4) One hundred and seventy seven presbyopic subjects with a mean age of 49.8±3.9 years (range 41-57 years); 96 males and 81 females were recruited in this study. The participants in the study all gave written informed consent. […] During the study, the subjects were closely monitored and regularly asked to report on any ocular, systemic, or physiological reactions they experienced. […]
(§5) Initial pupil size and both near and distance visual acuities were documented before treatment and at 1, 2, 4, 8 and 10 hours after treatment at the same room illumination. Subjects were monitored and subjected to complete ocular examination including visual acuity evaluation and slit-lamp biomicroscopy after one week of treatment and monthly during the first three months to evaluate dosage, satisfaction, adverse effects and complications (for instance, retinal detachment, pigment dispersion, posterior synechiae and intraocular inflammation). […] Distance visual acuity was measured using the standard Snellen projector chart. […] Any adverse symptoms and subject satisfaction with near and distance vision were also monitored. […]

myopic presbyopes = details: Group 2
Source text: as §3, §4, §5

presbyopic subjects = details: subjects receiving brimonidine drops
Source text: One hundred and seventy seven presbyopic subjects with a mean age of 49.8±3.9 years (range 41-57 years); 96 males and 81 females were recruited in this study. The participants in the study all gave written informed consent. […] All subjects were in good physical and ocular health and completed a questionnaire to ascertain any contraindications for participation or predisposition to complications (e.g. heart or respiratory conditions, migraines, high myopia, ocular or systemic medications, or ocular surgeries). […] The examination screened for contraindications to the drugs, susceptibility to retinal detachment, ocular pathology, or peripheral retinal degeneration. […] During the study, the subjects were closely monitored and regularly asked to report on any ocular, systemic, or physiological reactions they experienced. […]
Initial pupil size and both near and distance visual acuities were documented before treatment and at 1, 2, 4, 8 and 10 hours after treatment at the same room illumination. Subjects were monitored and subjected to complete ocular examination including visual acuity evaluation and slit-lamp biomicroscopy after one week of treatment and monthly during the first three months to evaluate dosage, satisfaction, adverse effects and complications (for instance, retinal detachment, pigment dispersion, posterior synechiae and intraocular inflammation). […]

hyperopic presbyopes = experiment: Example 6 masked study: near visual acuity (Jaeger Eye Chart), Group 3, both eyes (Tables 9, 10)
Source text: as §3, §4, §5

presbyopia subjects [4] = experiment: Example 8 dose range studies of carbachol and pilocarpine with or without brimonidine: near LogMAR visual acuity
Procedure: Dose range studies were performed for carbachol and pilocarpine.
Both Groups 1 and 2 received the same pre- and post-treatment work-up and measurements: Age, gender, initial pupil size, and near vision acuity (NVA) were documented. Subjects' NVA was measured post treatment at 1, 2, 4, and 8 hours, at the same room illumination Any adverse symptoms and subject satisfaction with near and distance vision were documented.

[5] = system: patients suffering from presbyopia; experiment: Example 4 preliminary evaluation: near visual acuity after pilocarpine alone or with brimonidine (Table 1 dosages, FIG. 1); type: in vivo, human; details: individual patients
Source text: Initially, 10 patients were selected for preliminary evaluation. […] All six dosages provided some (varying) initial improvement in visual acuity. However, the effect of formulations containing pilocarpine alone appears to wear out fairly quickly whereas it takes longer time for effects of formulations containing both drugs to wear out.

[6] = system: patients suffering from presbyopia; experiment: Table 11: pupil diameter after pilocarpine alone or pilocarpine plus brimonidine; type: in vivo, human; details: individual patients
presbyopia subjects [7] = experiment: Example 8 dose range studies: adverse symptoms, tolerability and satisfaction survey; type: in vivo, human
Source text: The survey asked the patients whether they would use the drops again.

[8] = Stability of pilocarpine at neutral pH; type: physicochemical; details: needs about pH 5

C[N+](C)(C)CCOC(N)=O [3% carbachol alone, carbachol]
mean near visual acuity (NVA) ([1]; 1 h post-treatment): 5.5 ± 1 J
mean near visual acuity (NVA) ([1]; 2 h post-treatment): 5.9 ± 0.8 J
mean near visual acuity (NVA) ([1]; 4 h post-treatment): 7 ± 1.2 J
mean near visual acuity (NVA) ([1]; 8 h post-treatment): 7.5 ± 1 J
mean near visual acuity (NVA) ([1]; before treatment (baseline)): 8.6 ± 1.5 J
mean near visual acuity (NVA) (target) ([1]; hours 1-8, Snellen fraction, FIG. 25): never achieved an NVA of ≥20/40
NVA 1-h ([1]; 1 h post-treatment): 5.5 ± 1 J
NVA 2-h ([1]; 2 h post-treatment): 5.9 ± 0.8 J
NVA 4-h ([1]; 4 h post-treatment): 7 ± 1.2 J
NVA 8-h ([1]; 8 h post-treatment): 7.5 ± 1 J
NVA Pre-treatment [1]: 8.6 ± 1.5 J
mean pupil size (PS) ([2]; 1 h post-treatment): 2.8±0.3 mm
mean pupil size (PS) ([2]; 2 h post-treatment): 3±0.3 mm
mean pupil size (PS) ([2]; 4 h post-treatment): 3.5±0.3 mm
mean pupil size (PS) ([2]; 8 h post-treatment): 4±0.3 mm
mean pupil size (PS) ([2]; before treatment (baseline)): 4.3±0.5 mm
mean pupil size (target) ([2]; hours 1-8, FIG. 24): never achieved the target pupil size
PS 1-h ([2]; 1 h post-treatment): 2.8 ± 0.3 mm
PS 2-h ([2]; 2 h post-treatment): 3 ± 0.3 mm
PS 4-h ([2]; 4 h post-treatment): 3.5 ± 0.3 mm
PS 8-h ([2]; 8 h post-treatment): 4 ± 0.3 mm
PS Pre-treatment [2]: 4.3 ± 0.5 mm

Brc1c(NC2=NCCN2)ccc2nccnc12 [Brimonidine 0.2%, brimonidine]
mean change in near visual acuity (J), comparison of all groups [3]: the least
difference in mean NVA before treatment vs any time point after treatment ([1]; P>0.05): no statistically significant difference
NVA 1-h ([1]; 1 h post-treatment): 7.7 ± 1.3 J
NVA 2-h ([1]; 2 h post-treatment): 8.2 ± 1.3 J
NVA 4-h ([1]; 4 h post-treatment): 8.5 ± 1.4 J
NVA 8-h ([1]; 8 h post-treatment): 8.6 ± 1.5 J
NVA Pre-treatment [1]: 8.6 ± 1.5 J
difference in mean PS before treatment vs any time point after treatment ([2]; P>0.05): no statistically significant difference
miotic effect ([2]; mainly first hour after instillation, light luminance, not statistically significant (P>0.05)): mild miotic effect
PS 1-h ([2]; 1 h post-treatment): 3.95 ± 0.5 mm
PS 2-h ([2]; 2 h post-treatment): 4.2 ± 0.4 mm
PS 4-h ([2]; 4 h post-treatment): 4.3 ± 0.5 mm
PS 8-h ([2]; 8 h post-treatment): 4.3 ± 0.5 mm
PS Pre-treatment [2]: 4.3 ± 0.5 mm
effect on pupil size or NVA ([2]; with 50 ppm BAK): virtually no effect
difference in mean NVA before treatment vs any time point after treatment (emmetropic presbyopes): No statistically significant difference
difference in mean NVA before treatment vs any time point after treatment (myopic presbyopes): No statistically significant difference
mild burning sensation, number of subjects (presbyopic subjects): 10 subjects
difference in mean NVA before treatment vs any time point after treatment (hyperopic presbyopes): No statistically significant difference
synergy (presbyopia subjects [4]; in vivo): synergistic with both carbachol and pilocarpine

CC[C@@H]1C(=O)OC[C@@H]1Cc1cncn1C [Pilo Alone]
nVA(j) 1 hr ([5]; Pilo 0.5%): 3 j (2×) and 6 j and 5 j
nVA(j) 2 hrs ([5]; Pilo 0.5%): 5 j (2×) and 3 j (2×)
nVA(j) 4 hrs ([5]; Pilo 0.5%): 5 j (3×) and 3 j
nVA(j) 1 hr ([5]; Pilo 1%): 3 j (2×) and 2 j and 8 j
nVA(j) 2 hrs ([5]; Pilo 1%): 3 j and 2 j (2×) and 8 j
nVA(j) 4 hrs ([5]; Pilo 1%): 5 j (2×) and 3 j and 10 j
Pre-Treatment Near Va ([5]; before treatment): 6 j (4×) and 5 j (4×) and 8 j (2×) and 10 j and 3 j
pupil 1 hr ([6]; Pilo 0.5%): 2.5 and 3.8 and 3 (2×)
pupil 2 hrs ([6]; Pilo 0.5%): 3 and 4 and 2.5 and 3.3
pupil 4 hrs ([6]; Pilo 0.5%): 3.3 and 4 and 3 and 4.2
pupil 1 hr ([6]; Pilo 1%): 2.5 (2×) and 1.5 and 3
pupil 2 hrs ([6]; Pilo 1%): 3 (2×) and 1.5 and 2.5
pupil 4 hrs ([6]; Pilo 1%): 4 (2×) and 2.5 and 3
pupil 4 hrs ([6]; Pilo […]): 4
Pre-Treatment Pupil Diam O.S. ([6]; before treatment, left eye): 4 (2×) and 4.3 and 3.5 (2×) and 5 and 3.9 and 3 and 4.5 (3×) and 5.4
Pre-Treatment Pupil Diam O.D. ([6]; before treatment, right eye): 4 (3×) and 3.5 (2×) and 5 and 4.3 and 3 and 4.5 (3×) and 5.5

C[N+](C)(C)CCOC(N)=O [carbachol]
tolerability / discomfort vs carbachol concentration (presbyopia subjects [7]; over seven days, FIG. 15): caused some increased discomfort
duration (presbyopia subjects [4]; in vivo): 8 h

CC[C@@H]1C(=O)OC[C@@H]1Cc1cncn1C [pilocarpine]
burning (presbyopia subjects [7]; in vivo): burned
stability at neutral pH [8]: unstable at neutral pH
onset of effect (presbyopia subjects [4]; pilocarpine vs carbachol): more immediate effect
duration (presbyopia subjects [4]; pilocarpine vs carbachol, in words): shorter duration
